Test results as given in patent US20260091141A1, “GENE EDITING METHODS, SYSTEMS, AND COMPOSITIONS FOR TREATING SPINAL MUSCULAR ATROPHY” (The Broad Institute, Inc., priority 2023, published 2026).

What was measured:
SMN protein [1] = test: SMN protein levels in Δ7SMA mESCs by Western blot, normalized to histone H3; assay type: cell-based, mouse
From the text: Precise deletions are defined as those that remove ≥4 nt of ISS-N1 including ≥4 nt of the 3′-hnRNP A1/A2 domain. […] Precise deletions are defined as those that enable the addition of five or more C-terminal amino acids to SMNΔ7 (SMNΔ7mod) to restore protein stability. […] The observed fraction of precise deletions, splice acceptor (SA) deletions, and other indels are shown. […] FIG. 1I provides stacked bar charts showing SMN2 splice variants following editing with C-nuc and C-CBE, as measured by high-throughput sequencing of mRNA transcripts amplified with exon 6 and polyA-primers. Splicing activity of exon 7 spliced and unspliced sub-fractions is shown. Asterisks indicate *≤0.05. **≤0.01, and ***≤0.005.
(§1) Risdiplam doses of 1.0, 0.5, 0.25, or 0.1 μM were used (shown from left to right in the graph). […] The asterisk indicates p<0.05 by Welch's two-tailed t-test. […] UG=unrelated guide; NT=no treatment.
(§2) UG-unrelated guide; NT=no treatment.

Δ7SMA mice = test: Electrophysiological measurements (CMAP, MUNE) in Δ7SMA mice; assay type: in vivo, mouse; conditions: PND12, 2.5×10^13 vg/kg Zolgensma, 0.1 mg/kg risdiplam IP daily
Procedure: Compound muscle action potential (CMAP) amplitude and motor unit number estimation (MUNE) from the gastrocnemius muscle of treated animals was performed to assess loss of motor neuron functional integrity, a key feature of SMA and preclinical SMA models^131. […] MUNE were reduced by 50% in untreated Δ7SMA animals compared to heterozygous mice. […] In contrast, little or no improvement in MUNE was observed following Zolgensma or 0.1 mg/kg risdiplam administration (50% and 75% relative to heterozygotes respectively, Kruskal-Wallis test p>0.6). […] Thus, neonatal ICV injection of AAV9-ABE measurably rescues SMA pathophysiology of spinal motor neurons.
Compound muscle action potential (CMAP) and motor unit number estimate (MUNE) measurements were performed as previously described^178. Briefly, at PND12 the right sciatic nerve was stimulated with a pair of insulated 28-gauge monopolar needles (Teca, Oxford Instruments Medical, NY) placed in proximity to the sciatic nerve in the proximal hind limb.
Recording electrodes consisted of a pair of fine ring wire electrodes (Alpine Biomed, Skovlunde, Denmark). […]
For MUNE, an incremental stimulus technique similar to a previously described procedure was used^178. […] The peak-to-peak amplitude of each individual incremental response was calculated by subtracting the amplitude of the prior response. […]

SMN2 mRNA = test: RT-qPCR of SMN2 mRNA abundance in Δ7SMA mESCs; assay type: cell-based, mouse
Procedure: To investigate how exon 8 SA disruption affects SMN2 transcripts, reverse transcription quantitative PCR (RT-qPCR) was performed to measure the abundance of SMN2 mRNA in treated and control Δ7SMA mESCs. The terminal sequence of SMN2, including intron 7 and the 3′ untranslated region (UTR) of exon 8, encode negative regulators of gene expression and mRNA transcript stability^21,71,72. Alternative splicing at the terminus of SMN2 therefore may result in increased SMN protein levels. […]
To investigate whether risdiplam and nusinersen treatment of Δ7SMA mESCs affect SMN2 transcript abundance, RT-qPCR was performed, and SMN2 mRNA levels were quantified in treated and genome edited cells (FIG. 7G). […] In contrast, a 1.8-fold reduction of SMN2 mRNA was detected 48 hours after nusinersen treatment relative to untreated Δ7SMA mESCs (Welch's two-tailed t-test p<0.005) that explains the relative reduction in SMN protein levels compared to the base editing approach (FIG. 2G).
(§3) mRNA was isolated from […] mESCs with the RNeasy mini kit (Qiagen), and reverse transcription was performed using SuperScript IV (ThermoFisher) according to the manufacturer's protocols. For targeted SMN2 qPCR and splice product quantitation by automated electrophoresis, reverse transcription was performed with random hexamers. […]

SMN2 transcript = test: SMN2 / exon 7 mRNA transcript levels in Δ7SMA mESCs; assay type: cell-based, mouse
Procedure: as §1, §2

SMN protein [2] = conditions: patient tissues; cited from earlier work
SMN protein [3] = conditions: SMA patients; cited from earlier work
SMN2 exon 7 splicing = SMN2 exon 7 splicing by RT-PCR (exons 6 to 8) and automated electrophoresis in Δ7SMA mESCs; assay type: cell-based, mouse
Procedure: To assess whether nuclease-mediated editing of ISS-N1 improved exon 7 splicing, reverse-transcription PCR (RT-PCR) of SMN2 was performed from exons 6 to 8, and SMNΔ7 and full-length SMN products were quantified by automated electrophoresis (FIG. 1C).
For Δ7SMA mESCs nusinersen experiments, cells were transfected with 20 nM of fully 2′-O-methoxyethyl (MOE)-modified ASO (5′-[…]-3′) (SEQ ID NO: 469) on a phosphorothioate backbone (TriLink), using Lipofectamine 3000 (ThermoFisher Scientific). After 24 hours media was replaced every other day with fresh mESC+2i media. For splicing rescue by risdiplam, mESC media was supplemented with 0.1-1 μM of risdiplam (RG7916, Selleck Chemicals LLC) in DMSO, as indicated. Cells were harvested at the indicated timepoints.
as §3, with “hexamers. Splicing inclusion of SMN2 exon 7 was quantified by automated electrophoresis using Tape Station (Agilent). For unbiased SMN2 splice product analysis by high-throughput sequencing, reverse transcription was performed using a custom oligo-dT primer with a Read 2 Illumina sequencing stub.” for “hexamers.”

SMN protein [4] = test: Western blot of SMN protein in Δ7SMA mESCs; assay type: cell-based, mouse; conditions: normalized to histone H3
Procedure: Cells harvested for western blot were washed with ice-cold PBS and incubated at 4° C. for 30 min while rocking in RIPA lysis buffer (ThermoFisher) supplemented with 1 mM PMSF (ThermoFisher) and complete EDTA-free protease inhibitor cocktail (Roche). Lysates were clarified by centrifugation at 12,000 rpm at 4° C. for 20 min. Lysates were normalized using BCA (Pierce BCA Protein Assay Kit) and combined with 4× Laemelli buffer (BioRad) and DTT (ThermoFisher) at a final concentration of 1 mM. 10 μg of reduced protein were loaded per gel lane, and transfer was performed with an iBlot 2 dry blotting system (ThermoFisher) using the following program: 20V for 1 min, then 23 V for 4 min, then 25 V for 2 min, for a total transfer time of 7 minutes. Blocking was performed at room temperature for 60 minutes with block buffer: 1% BSA in TBST (150 mM NaCl, 0.5% Tween-20, 50 mM Tris-Cl, pH 7.5).
Membranes were then incubated in primary antibody diluted in block buffer for 2 hours at room temperature. After a washing, secondary antibodies diluted in TBST were added and incubated for 1 hour at room temperature. Membranes were washed again and imaged using a LI-COR Odyssey. Wash steps were 3×5-minute washes in TBST. […]

DNA = conditions: SpCas9 mutation relative to SEQ ID NO: 209; UniProtKB Q99ZW2 entry; cited from earlier work

| Compound | SMN protein levels, increase compared to Δ7SMA mESCs (SMN protein [1]) | MUNE relative to heterozygotes (Δ7SMA mice) | increase in SMN2 transcripts relative to untreated cells (SMN2 mRNA) | effect on SMN2 transcript levels (SMN2 transcript) | increase of SMN protein levels (SMN protein [2]) | increase of SMN protein levels in patient tissues (SMN protein [3]) | exon 7 splicing (SMN2 exon 7 splicing) | increase in SMN protein levels relative to untreated (SMN protein [4]) | Function/Characteristic (as reported) (DNA) |
| --- | --- | --- | --- | --- | --- | --- | --- | --- | --- |
| Cc1cn2nc(-c3cc(=O)n4cc(N5CCNC6(CC6)C5)ccc4n3)cc(C)c2n1 [risdiplam] | 9.5 fold | 75% | 1.6 fold | interfered with the endogenous regulation of SMN transcript levels | ~2 fold | ~2 fold | 89±4.3% | 9.1 fold |  |
| H840A: SpCas9 mutation relative to SEQ ID NO: 209 |  |  |  |  |  |  |  |  | Nickase mutant which cleaves the non- |
